{"source": "PubChem BioAssay AID1963422", "about": "(Molecular Pharmacology Branch, DTP, NCI, 2024);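 note: compound exposure lasted 7 days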;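 for viability, T/C: 100% = DMSO vehicle control wells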", "system": "463943-066-T-J2-PDC complex spheroid growth", "assay": "Anticancer human tumor 463943-066-T-J2-PDC patient-derived colon adenocarcinoma cell line growth inhibition [Asc]", "conditions": "for IC50: curve of first compound; for viability, T/C: stronger effect = lower value", "summary_of_the_method": "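Complex solid-tumor spheroids incorporating human endothelial and mesenchymal stem cells received single agents or combinations over half-log dilution ranges anchored to clinical Cmax.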"}
{"smiles": "C#Cc1c(F)ccc2cc(O)cc(-c3ncc4c(N5CC6CCC(C5)N6)nc(OCC56CCCN5CC(F)C6)nc4c3F)c12", "note": "(configuration not stated) + CNC(C)C(=O)NC1CN(S(=O)(=O)c2cccc(S(=O)(=O)N3CCC4CCC(C(=O)NC(c5ccccc5)c5ccccc5)N4C(=O)C(NC(=O)C(C)NC)C3)c2)CCC2CCC(C(=O)NC(c3ccccc3)c3ccccc3)N2C1=O", "values": [{"measurement": "IC50", "setting": "second compound 0.00316 µM", "value": "> 10", "unit": "µM"}, {"measurement": "IC50", "setting": "second compound 0.01 µM", "value": "> 10", "unit": "µM"}, {"measurement": "IC50", "setting": "second compound 0.0316 µM", "value": "> 10", "unit": "µM"}, {"measurement": "IC50", "setting": "second compound 0.1 µM", "value": "> 10", "unit": "µM"}, {"measurement": "IC50", "setting": "second compound 0.316 µM", "value": "> 10", "unit": "µM"}, {"measurement": "IC50", "setting": "second compound 1 µM", "value": "> 10", "unit": "µM"}, {"measurement": "viability, T/C", "setting": "second compound 0.00316 µM, first compound 0.0316 µM", "value": 105, "unit": "%"}, {"measurement": "viability, T/C", "setting": "second compound 0.00316 µM, first compound 0.1 µM", "value": 103, "unit": "%"}, {"measurement": "viability, T/C", "setting": "second compound 0.00316 µM, first compound 0.316 µM", "value": 94.3, "unit": "%"}, {"measurement": "viability, T/C", "setting": "second compound 0.00316 µM, first compound 1 µM", "value": 123, "unit": "%"}, {"measurement": "viability, T/C", "setting": "second compound 0.00316 µM, first compound 3.16 µM", "value": 94, "unit": "%"}, {"measurement": "viability, T/C", "setting": "second compound 0.00316 µM, first compound 10 µM", "value": 99.5, "unit": "%"}, {"measurement": "viability, T/C", "setting": "second compound 0.01 µM, first compound 0.0316 µM", "value": 101, "unit": "%"}, {"measurement": "viability, T/C", "setting": "second compound 0.01 µM, first compound 0.1 µM", "value": 99.9, "unit": "%"}, {"measurement": "viability, T/C", "setting": "second compound 0.01 µM, first compound 0.316 µM", "value": 97.4, "unit": "%"}, {"measurement": "viability, T/C", "setting": "second compound 0.01 µM, first compound 1 µM", "value": 102, "unit": "%"}, {"measurement": "viability, T/C", "setting": "second compound 0.01 µM, first compound 3.16 µM", "value": 99.3, "unit": "%"}, {"measurement": "viability, T/C", "setting": "second compound 0.01 µM, first compound 10 µM", "value": 101, "unit": "%"}, {"measurement": "viability, T/C", "setting": "second compound 0.0316 µM, first compound 0.0316 µM", "value": 102, "unit": "%"}, {"measurement": "viability, T/C", "setting": "second compound 0.0316 µM, first compound 0.1 µM", "value": 101, "unit": "%"}, {"measurement": "viability, T/C", "setting": "second compound 0.0316 µM, first compound 0.316 µM", "value": 94.3, "unit": "%"}, {"measurement": "viability, T/C", "setting": "second compound 0.0316 µM, first compound 1 µM", "value": 103, "unit": "%"}, {"measurement": "viability, T/C", "setting": "second compound 0.0316 µM, first compound 3.16 µM", "value": 100, "unit": "%"}, {"measurement": "viability, T/C", "setting": "second compound 0.0316 µM, first compound 10 µM", "value": 91.3, "unit": "%"}, {"measurement": "viability, T/C", "setting": "second compound 0.1 µM, first compound 0.0316 µM", "value": 109, "unit": "%"}, {"measurement": "viability, T/C", "setting": "second compound 0.1 µM, first compound 0.1 µM", "value": 92, "unit": "%"}, {"measurement": "viability, T/C", "setting": "second compound 0.1 µM, first compound 0.316 µM", "value": 98, "unit": "%"}, {"measurement": "viability, T/C", "setting": "second compound 0.1 µM, first compound 1 µM", "value": 94.6, "unit": "%"}, {"measurement": "viability, T/C", "setting": "second compound 0.1 µM, first compound 3.16 µM", "value": 101, "unit": "%"}, {"measurement": "viability, T/C", "setting": "second compound 0.1 µM, first compound 10 µM", "value": 85.7, "unit": "%"}, {"measurement": "viability, T/C", "setting": "second compound 0.316 µM, first compound 0.0316 µM", "value": 88, "unit": "%"}, {"measurement": "viability, T/C", "setting": "second compound 0.316 µM, first compound 0.1 µM", "value": 94.2, "unit": "%"}, {"measurement": "viability, T/C", "setting": "second compound 0.316 µM, first compound 0.316 µM", "value": 89.6, "unit": "%"}, {"measurement": "viability, T/C", "setting": "second compound 0.316 µM, first compound 1 µM", "value": 93.3, "unit": "%"}, {"measurement": "viability, T/C", "setting": "second compound 0.316 µM, first compound 3.16 µM", "value": 100, "unit": "%"}, {"measurement": "viability, T/C", "setting": "second compound 0.316 µM, first compound 10 µM", "value": 81.8, "unit": "%"}, {"measurement": "viability, T/C", "setting": "second compound 1 µM, first compound 0.0316 µM", "value": 90.7, "unit": "%"}, {"measurement": "viability, T/C", "setting": "second compound 1 µM, first compound 0.1 µM", "value": 85.6, "unit": "%"}, {"measurement": "viability, T/C", "setting": "second compound 1 µM, first compound 0.316 µM", "value": 80.8, "unit": "%"}, {"measurement": "viability, T/C", "setting": "second compound 1 µM, first compound 1 µM", "value": 87.7, "unit": "%"}, {"measurement": "viability, T/C", "setting": "second compound 1 µM, first compound 3.16 µM", "value": 85.6, "unit": "%"}, {"measurement": "viability, T/C", "setting": "second compound 1 µM, first compound 10 µM", "value": 72, "unit": "%"}]}
